Assay results as given in publication PMC5602355, “Endogenous Isoquinoline Alkaloids Agonists of Acid-Sensing Ion Channel Type 3” (Frontiers in Molecular Neuroscience, 2017).

Legend:
rat ASIC3 (rASIC3) [1] = biological target: T1, rat ASIC3 (rASIC3) (Rattus norvegicus, UniProt O35240); assay: Activation of rASIC3 channels expressed in Xenopus laevis oocytes, whole-cell two electrode voltage clamp; assay type: cell-based
T1 construct: expressed in transfected cells; host or cells: Xenopus laevis oocytes (injected)
T1 sequence (O35240 1-533): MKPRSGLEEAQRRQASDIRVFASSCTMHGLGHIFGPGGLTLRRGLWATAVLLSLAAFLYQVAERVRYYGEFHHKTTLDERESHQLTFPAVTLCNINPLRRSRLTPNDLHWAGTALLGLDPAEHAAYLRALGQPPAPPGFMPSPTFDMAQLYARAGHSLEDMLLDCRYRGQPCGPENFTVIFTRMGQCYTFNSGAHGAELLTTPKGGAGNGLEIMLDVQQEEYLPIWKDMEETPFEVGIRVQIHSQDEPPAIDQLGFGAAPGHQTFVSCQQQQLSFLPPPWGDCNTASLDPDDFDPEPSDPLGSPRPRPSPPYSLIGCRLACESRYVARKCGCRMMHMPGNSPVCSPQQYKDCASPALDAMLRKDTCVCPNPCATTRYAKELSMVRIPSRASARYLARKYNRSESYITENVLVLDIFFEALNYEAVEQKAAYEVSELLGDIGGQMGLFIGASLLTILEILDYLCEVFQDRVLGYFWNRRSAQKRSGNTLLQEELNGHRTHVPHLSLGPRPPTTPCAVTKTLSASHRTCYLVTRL
Excerpt: (§1) The ability of EIAs to activate ASIC3 channels was studied in whole-cell configuration on oocytes of Xenopus laevis. THP and reticuline caused slowly activated sustained inward currents both in human (Figures 1A,B) and rat (Figures 1C,D) homomeric ASIC3 channels at resting pH 7.4 and above.
(§2) In the case of human ASIC3 channels (hASIC3), the activating effect was greater and even exceeded the response of the cell to pH drop of 7.8–5.5 in control experiments (Figure 1A). The maximal effect reached about 30% of Imax (a maximal amplitude predicted by the logistic equation fitting of dose-dependence of EIA-induced current). […] THP shown the same potency on the rASIC3 channel (rASIC3; Figure 1C). The activating effect under the same conditions reached about 30% of Imax.
(§3) Oocytes expressed hASIC3 and rASIC3 homomeric channels were prepared as described (Dubinnyi et al., [2012]). After injection, the oocytes were kept for 2–3 days at 19°C and then up to 7 days at 15°C in an ND-96 medium containing (in mM): 96 NaCl, 2 KCl, 1.8 CaCl2, 1 MgCl2 and 10 HEPES titrated to pH 7.4 with NaOH supplemented with gentamycin (50 μg/ml). Two electrode voltage clamp recordings were made using a GeneClamp500 amplifier (Axon Instruments), and data were filtered at 20 Hz and digitized at 100 Hz by an AD converter L780 (L-Card, Moscow, Russia) using homemade software. A computer-controlled valve system for a fast solution switch was used. Microelectrodes were filled with 3 M KCl solutions. All solutions of the testing compounds were supplemented with 0.1% BSA. To induce currents, we employed ND-96-modified solutions in which 10 mM of HEPES was substituted for 5 mM MES pH 5.5. A set of external ND-96 solutions with pH 6.8–7.0 (buffered with 10 mM of MOPS), pH 7.1–8.0 (buffered with 10 mM of HEPES) was prepared.
(§4) The analysis of electrophysiological data was performed using the program OriginPro 8.6. […]

rat ASIC3 (rASIC3) [2] = biological target: T1, rat ASIC3 (rASIC3); assay: Recovery of the transient current of rASIC3 from steady-state desensitization, oocytes; assay type: cell-based; details: rASIC3, conditioning pH 6.8, pH 5.5 stimulus, n = 4-5
Protocol: as §3, §4

human ASIC3 (hASIC3) [3] = biological target: T2, human ASIC3 (hASIC3) (Homo sapiens, UniProt Q9UHC3); assay: Recovery of the transient current of hASIC3 from steady-state desensitization, oocytes; assay type: cell-based; details: hASIC3, conditioning pH 7.3, pH 5.5 stimulus, n = 4-5
T2 construct: expressed in transfected cells; host or cells: Xenopus laevis oocytes (injected)
T2 sequence (Q9UHC3 1-531): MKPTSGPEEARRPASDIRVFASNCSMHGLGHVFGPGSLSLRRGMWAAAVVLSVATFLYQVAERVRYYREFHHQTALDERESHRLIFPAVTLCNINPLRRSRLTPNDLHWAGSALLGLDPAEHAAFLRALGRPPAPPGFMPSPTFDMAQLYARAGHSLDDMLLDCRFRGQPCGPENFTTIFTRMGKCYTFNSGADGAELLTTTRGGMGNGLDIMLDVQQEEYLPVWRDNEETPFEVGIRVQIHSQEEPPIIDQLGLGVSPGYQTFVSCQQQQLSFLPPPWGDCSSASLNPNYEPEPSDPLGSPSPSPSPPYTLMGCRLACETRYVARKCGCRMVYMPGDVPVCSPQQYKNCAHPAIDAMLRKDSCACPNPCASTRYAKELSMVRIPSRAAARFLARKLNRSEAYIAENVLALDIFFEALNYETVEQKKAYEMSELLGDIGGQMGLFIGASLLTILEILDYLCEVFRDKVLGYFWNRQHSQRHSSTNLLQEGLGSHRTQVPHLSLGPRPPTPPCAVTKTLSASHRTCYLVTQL
Protocol: EIAs cause both the channel activation and transient component of hASIC3 current restoration from a desensitization at pH 7.3 (Figures 2A,D). For THP, the restoration effect was more pronounced. This effect was dose-dependent and reached a maximal possible value at the highest applied concentration of THP (10 mM). […] For this reason, the maximal amplitude of the transient current recovered by THP from desensitization (Imax) was predicted by the fitting of the dose dependence by a logistic equation for each experimental cell.
as §3, with “To induce currents, we employed ND-96-modified solutions in which 10 mM of HEPES was substituted for 5 mM MES pH 5.5. A set of external ND-96 solutions with pH 6.8–7.0 (buffered with 10 mM of MOPS), pH 7.1–8.0 (buffered with 10 mM of HEPES) was prepared.” left out

human ASIC3 (hASIC3) [4] = biological target: T2, human ASIC3 (hASIC3); assay: Activation of hASIC3 channels expressed in Xenopus laevis oocytes, whole-cell two electrode voltage clamp; assay type: cell-based; details: for Maximal activating effect reached, % of Imax: Imax predicted by logistic fit
Excerpt: as §1, §2
(§5) Consequently, a maximal concentration of 1 mM was used in experimentations. The maximal effect on hASIC3 reached about 60% of Imax.
as §3
The analysis of electrophysiological data was performed using the program OriginPro 8.6. The curve-fitting analysis was carried out with the following four-parameter logistic equation: F(x) = A/(1 + (x/x0)n), where x is the concentration of the ligand, F(x) is the response value at a given ligand concentration, A is the response value at maximal activation (% of control), x0 is the EC50 value and n is the Hill coefficient (slope factor). All data are presented as the mean ± SE.

[5] = Solubility in physiological solutions for electrophysiology; assay type: physicochemical; details: in words; maximal concentration used 1 mM
Protocol: as §5

[6] = hASIC3, holding pH 7.8, logistic fit, n = 5

Row | Compound | Hill coefficient (nH) of channel activation (rat ASIC3 (rASIC3) [1]; rASIC3, holding pH 7.8, logistic fit, n = 5) | EC50 (rat ASIC3 (rASIC3) [1]; rASIC3, holding pH 7.8, logistic fit, n = 5, read-out: EC50 of channel activation (EIA-induced sustained current)) | Maximal activating effect reached, % of Imax (rat ASIC3 (rASIC3) [1]; rASIC3, pH 7.8, up to 10 mM, Imax predicted by logistic fit) | EC50 (rat ASIC3 (rASIC3) [2]) | EC50 (human ASIC3 (hASIC3) [3]) | EC50 (human ASIC3 (hASIC3) [4]) | Hill coefficient (nH) of channel activation (human ASIC3 (hASIC3) [4]; [6]) | Maximal activating effect reached, % of Imax (human ASIC3 (hASIC3) [4]; hASIC3, pH 7.8, highest accessible concentration 10 mM) | Solubility in physiological solutions for electrophysiology [5] | EC50 (human ASIC3 (hASIC3) [4]; hASIC3, holding pH 7.8, logistic fit, n = 5, read-out: EC50 of channel activation (EIA-induced sustained current)) | Maximal activating effect reached, % of Imax (human ASIC3 (hASIC3) [4]; hASIC3, maximal concentration 1 mM)
1 | Oc1ccc(CC2NCCc3cc(O)c(O)cc32)cc1O (stereo not drawn) [THP, tetrahydropapaveroline] | 0.95 ± 0.04 | > 10 mM | about 30 % of Imax | 4.6 ± 0.1 mM | 2.3 ± 0.04 mM | > 10 mM | 0.99 ± 0.05 | about 30 % of Imax |  |  | 
2 | COc1ccc(CC2c3cc(O)c(OC)cc3CCN2C)cc1O (stereo not drawn) [Reticuline, reticuline] |  |  |  |  |  |  | 0.85 ± 0.05 |  | does not have a high solubility | 0.56 ± 0.04 mM | about 60 % of Imax
